In brackets after ≈: the same amount, converted by molar mass.
Columns and labels:
Callosobruchus chinensis [1] = test: Insecticidal activity against Callosobruchus chinensis assessed as mortality at 1000 mg/l at 27 +/- 1 degC and 70% RH; type: functional
Callosobruchus chinensis [2] = test: Insecticidal activity against Callosobruchus chinensis assessed as mortality at 27 +/- 1 degC and 70% RH; type: functional

| Structure (SMILES) | mortality at 1000 µg/mL (Callosobruchus chinensis [1]) | LC50 (Callosobruchus chinensis [2]) |
| --- | --- | --- |
| Clc1ccc(-c2cc(-c3ccccc3)on2)cc1 | 65% |  |
| COc1ccc(-c2cc(-c3ccccc3)no2)cc1 | 66% |  |
| Cc1ccc(-c2cc(-c3ccccc3)no2)cc1 | 65% |  |
| COc1ccc(-c2cc(-c3ccc(Cl)cc3)on2)cc1 | 85% | 330 µg/mL (≈ 1150 µM) |
| Fc1ccc(-c2cc(-c3ccccc3)on2)cc1 | 86% | 254 µg/mL (≈ 1060 µM) |
| Fc1ccc(-c2cc(-c3ccc(Cl)cc3)on2)cc1 | 59% |  |
| Cc1ccc(-c2cc(-c3ccc(F)cc3)no2)cc1 | 67% |  |
| COc1ccc(-c2cc(-c3ccc(F)cc3)no2)cc1 | 88% | 289 µg/mL (≈ 1070 µM) |
| Clc1ccc(-c2cc(-c3ccc(Cl)cc3)on2)cc1 | 90% | 134 µg/mL (≈ 462 µM) |
| Cc1ccc(-c2cc(-c3ccc(Cl)cc3)no2)cc1 | 63% |  |
| COc1ccc(-c2cc(-c3ccc(Cl)cc3)no2)cc1 | 82% | 354 µg/mL (≈ 1240 µM) |
| Clc1ccccc1-c1cc(-c2ccccc2)on1 | 78% | 36 µg/mL (≈ 141 µM) |
| Clc1ccc(-c2cc(-c3ccccc3Cl)no2)cc1 | 85% | 338 µg/mL (≈ 1160 µM) |
| Cc1ccc(-c2cc(-c3ccccc3Cl)no2)cc1 | 68% |  |
| COc1ccc(-c2cc(-c3ccccc3Cl)no2)cc1 | 86% | 110 µg/mL (≈ 385 µM) |
| COc1ccc(-c2cc(-c3ccccc3)on2)cc1 | 58% |  |
| COc1ccc(-c2cc(-c3ccc(C)cc3)on2)cc1 | 84% | 93 µg/mL (≈ 351 µM) |
| COc1ccc(-c2cc(-c3ccc(OC)cc3)on2)cc1 | 89% | 296 µg/mL (≈ 1050 µM) |
| Clc1ccc(-c2cc(-c3ccccc3)no2)cc1 | 46% |  |
| c1ccc(-c2cc(-c3ccccc3)on2)cc1 [3,5-DIPHENYLISOXAZOLE] | 67% |  |
| COP(=O)(OC)OC=C(Cl)Cl [DICHLORVOS] |  | 155 µg/mL (≈ 701 µM) |

Source: ChEMBL document CHEMBL3046686, “Isoxazole derivatives as a potential insecticide for managing Callosobruchus chinensis” (2010)
